The numbers were not newly measured in US10603349B2, “Method for preparing pharmaceutical compositions of rhizomes from Alpinia galanga or Alpinia conchigera having a high content of 1′S-1′-acetoxychavicol acetate (ACA)” (NERTHUS APS, priority 2013, dated 2020), which cites them from elsewhere.

This series has as its system whole-body insulin resistance. The note with it: fructose-induced rat model of metabolic syndrome.

Each structure is given as a SMILES string.

With `O=c1c(O)c(-c2ccccc2)oc2cc(O)cc(O)c12` [Galangin, galangin], the “Blood glucose and insulin levels” value is “dose-dependently normalized”.
